{"source": "patent US20100160306A1", "about": "“Acylated Piperidine Derivatives as Melanocortin-4 Receptor Agonists” (priority 2005, published 2010)", "origin": "cited, not measured here", "settings": "injected intramuscularly or subcutaneously, males with psychogenic erectile dysfunction"}
{"substance": "Ac-Nle-c[Asp-His-DPhe-Arg-Trp-Lys]-NH2 [MT-II]", "values": [{"measurement": "response rate", "value": 75, "unit": "%"}]}
